For orientation: IC50 means the concentration at which inhibition is half-maximal. Low readings indicate higher potency, high ones lower potency. The term Kd denotes the constant that tells how readily two partners part at equilibrium.

In test [1] the target is GDP-bound HRAS wild-type protein (Homo sapiens, UniProt P01112). Kind of test: Binding to HRAS by surface plasmon resonance (SPR), Single Cycle Kinetics. The following applies: for HRAS/KRAS (ratio of KD value for HRAS to KD value for KRAS): SPR, GDP-bound HRAS wild-type protein vs GDP-bound KRAS wild-type protein; for HRAS/KRAS (ratio of KD value with respect to GDP-bound HRAS wild-type protein to KD value with respect to KRAS): SPR KD ratio HRAS/KRAS, class symbols.

For test [2], the system named is human lung cancer strain NCI-H441.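 Also: cell proliferation inhibition after four days measured by CellTiter-Glo.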
The target in test [3] is GDP-bound KRAS wild-type protein (Homo sapiens, UniProt P01116). Kind of test: Binding to KRAS by surface plasmon resonance (SPR), Single Cycle Kinetics. The following applies: GDP-bound KRAS wild-type protein, read-out: KRAS KD. Background: In SPR one partner is held on a chip, and binding of the other changes the refractive index at the surface.
Test [4] concerns the target GDP-bound NRAS wild-type protein (Homo sapiens, UniProt P01111). Kind of test: Binding to NRAS by surface plasmon resonance (SPR), Single Cycle Kinetics. Particulars: for NRAS/KRAS (ratio of KD value for NRAS to KD value for KRAS): SPR, GDP-bound NRAS wild-type protein vs GDP-bound KRAS wild-type protein; for NRAS/KRAS (ratio of KD value with respect to GDP-bound NRAS wild-type protein to KD value with respect to KRAS): SPR KD ratio NRAS/KRAS, class symbols.

[5] abbreviates: SPR, Single Cycle Kinetics, 1:1 binding model.
Where [6] appears, read: SPR Single Cycle Kinetics, 1:1 binding model.

Like-named read-outs stand apart in the source and are kept apart here.

Chain of GDP-bound NRAS wild-type protein (P01111 whole entry): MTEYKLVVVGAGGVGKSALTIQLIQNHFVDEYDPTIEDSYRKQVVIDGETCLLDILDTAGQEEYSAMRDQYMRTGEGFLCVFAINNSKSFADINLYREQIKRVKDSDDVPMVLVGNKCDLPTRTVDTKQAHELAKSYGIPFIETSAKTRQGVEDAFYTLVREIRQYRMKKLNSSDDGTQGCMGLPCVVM
Chain of GDP-bound HRAS wild-type protein (P01112 whole entry): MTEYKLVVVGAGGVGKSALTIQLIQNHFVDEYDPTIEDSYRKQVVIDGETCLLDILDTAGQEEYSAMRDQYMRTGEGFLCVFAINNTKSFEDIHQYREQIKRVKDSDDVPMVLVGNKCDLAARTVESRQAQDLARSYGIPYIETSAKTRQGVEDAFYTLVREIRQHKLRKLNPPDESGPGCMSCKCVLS
Chain of GDP-bound KRAS wild-type protein (P01116 whole entry): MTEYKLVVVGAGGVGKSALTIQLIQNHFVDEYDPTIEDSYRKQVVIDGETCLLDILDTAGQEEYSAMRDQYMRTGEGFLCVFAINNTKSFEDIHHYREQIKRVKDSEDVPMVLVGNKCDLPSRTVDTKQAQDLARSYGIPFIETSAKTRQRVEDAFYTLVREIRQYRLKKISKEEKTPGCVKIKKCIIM

As to `CCO[C@@H]1C[C@H]2C(=O)NC3(CCC3)C(=O)N(C)[C@@H](C3CCCC3)C(=O)N(C)[C@H](C(=O)N3CCOCC3)CC(=O)N(C)[C@@H](C)C(=O)N[C@@H]([C@@H](C)CC)C(=O)N(C)CC(=O)N(C)[C@H]3C/C=C\CCN(C3=O)[C@@H](Cc3ccc(C(F)(F)F)cc3)C(=O)N(C)CC(=O)N[C@@H](CCc3cc(F)c(C(F)(F)F)c(F)c3)C(=O)N2C1` [PP1284], the “HRAS/KRAS (ratio of KD value for HRAS to KD value for KRAS)” value in test [1] (KD ratio class) is “A (a compound having 10 or more and less than 20 is denoted as A)”. Moreover, the IC50 in test [2] was determined as 54.8 nM. In addition, the Kd in test [3] (setting [5]) came out at 0.12 nM. Further, the “NRAS/KRAS (ratio of KD value for NRAS to KD value for KRAS)” value in test [4] (KD ratio class) was “AA (a compound having 20 or more is denoted as AA)”.
On to `CCCOC[C@H]1C(=O)N[C@@H]([C@@H](C)OCC)C(=O)N2CCC[C@H]2C(=O)N(C)[C@H]2C/C=C\CCN(C2=O)[C@@H](Cc2ccc(C)cc2)C(=O)N(C)CC(=O)N[C@@H](CCc2cc(F)c(C(F)(F)F)c(F)c2)C(=O)N2C[C@H](OCC)C[C@H]2C(=O)NC2(CC(C)(C)C2)C(=O)N(C)[C@@H](C2CCCC2)C(=O)N(C)[C@H](C(=O)N(C)CC)CC(=O)N1C` [PP2432], for which the “HRAS/KRAS (ratio of KD value for HRAS to KD value for KRAS)” value in test [1] is “A (a compound having 10 or more and less than 20 is denoted as A)”. In test [2], this compound registered a half-maximal inhibitory concentration (IC50) of 138 nM. The Kd in test [3] (SPR, Single Cycle Kinetics) was 1.4 nM. Besides, in test [4], the “NRAS/KRAS (ratio of KD value for NRAS to KD value for KRAS)” value is “A (a compound having 10 or more and less than 20 is denoted as A)”.
With `CC[C@H](C)[C@@H]1NC(=O)[C@H](CC)N(C)C(=O)C[C@@H](C(=O)N(C)C)N(C)C(=O)[C@H](C2CCCC2)N(C)C(=O)C2(CCC2)NC(=O)[C@@H]2CCN2C(=O)[C@H](CCc2cc(F)c(C(F)(F)F)c(F)c2)NC(=O)CN(C)C(=O)[C@H](Cc2ccc(C(F)(F)F)cc2)N2CC/C=C\C[C@@H](C2=O)N(C)C(=O)CN(C)C1=O` [PP1139], in test [1], the “HRAS/KRAS (ratio of KD value for HRAS to KD value for KRAS)” value was “A (a compound having 10 or more and less than 20 is denoted as A)”. In test [2], this compound had a half-maximal inhibitory concentration (IC50) of 297 nM. In test [3] (SPR, Single Cycle Kinetics), the Kd stood at 0.43 nM. Moreover, the “NRAS/KRAS (ratio of KD value for NRAS to KD value for KRAS)” value in test [4] was “A (a compound having 10 or more and less than 20 is denoted as A)”.
As for `CCC[C@H]1C(=O)N[C@@H]([C@@H](C)CC)C(=O)N(C2CC2)CC(=O)N(C)[C@H]2C/C=C\CCN(C2=O)[C@@H](Cc2ccc(C)cc2)C(=O)N(C)CC(=O)N[C@@H](CCc2ccc(Cl)c(Cl)c2)C(=O)N2C[C@H](OCC)C[C@H]2C(=O)NC2(CC(C)(C)C2)C(=O)N(C)[C@@H](C(CC)CC)C(=O)N(C)[C@H](C(=O)N(C)C)CC(=O)N1C` [PP2561], in test [1], the “HRAS/KRAS (ratio of KD value with respect to GDP-bound HRAS wild-type protein to KD value with respect to KRAS)” value is “A (a compound having 10 or more and less than 20 is denoted as A)”. This compound had a concentration for half-maximal inhibition (IC50) in test [2] of 96.4 nM. Further, in test [3] (setting [6]), the equilibrium dissociation constant (Kd) is 1.9 nM. For the same compound, in test [4], the “NRAS/KRAS (ratio of KD value with respect to GDP-bound NRAS wild-type protein to KD value with respect to KRAS)” value was “AA (a compound having 20 or more is denoted as AA)”.
Regarding `CC[C@H](C)[C@@H]1NC(=O)[C@H](CC)N(C)C(=O)C[C@@H](C(=O)N(C)C)N(C)C(=O)[C@H](C2CCCC2)N(C)C(=O)C2(CCC2)NC(=O)[C@@H]2C[C@@H](OC)CN2C(=O)[C@H](CCc2cc(F)c(C(F)(F)F)c(F)c2)NC(=O)CN(C)C(=O)[C@H](Cc2ccc(C(F)(F)F)cc2)N2CC/C=C\C[C@@H](C2=O)N(C)C(=O)CN(C)C1=O` [PP1130, (2S,8S,12R,14S,20S,23S,27S,30S,36S,38Z)-20-cyclopentyl-8-[2-[3,5-difluoro-4-(trifluoromethyl)phenyl]ethyl]-27-ethyl-12-methoxy-N,N,4,19,22,26,32,35-octamethyl-30-[(1S)-1-methylpropyl]-3,6,9,15,18,21,25,28,31,34,42-undecaoxo-2-[[4-(trifluoromethyl)phenyl]methyl]spiro[1,4,7,10,16,19,22,26,29,32,35-undecazatricyclo[34.5.1.0^10,14]dotetracont-38-ene-17,1′-cyclobutane]-23-carboxamide], the “HRAS/KRAS (ratio of KD value for HRAS to KD value for KRAS)” value in test [1] was “B (a compound having 3 or more and less than 10 is denoted as B)”. Also, the half-inhibitory concentration (IC50) in test [2] stood at 19.6 nM. Further, the dissociation constant Kd in test [3] (SPR, Single Cycle Kinetics) was found to be 0.035 nM. Further, the “NRAS/KRAS (ratio of KD value for NRAS to KD value for KRAS)” value in test [4] was “A (a compound having 10 or more and less than 20 is denoted as A)”.
Regarding `CCO[C@@H]1C[C@H]2C(=O)NC3(CCC3)C(=O)N(C)[C@@H](C3CCCC3)C(=O)N(C)[C@H](C(=O)N3CCOCC3)CC(=O)N(C)[C@@H](CC)C(=O)N[C@@H]([C@@H](C)CC)C(=O)N3CC[C@H]3C(=O)N(C)[C@H]3C[C@@H](C)[C@@H](C)CN(C3=O)[C@@H](Cc3ccc(C(F)(F)F)cc3)C(=O)N(C)CC(=O)N[C@@H](CCc3cc(F)c(C(F)(F)F)c(F)c3)C(=O)N2C1` [PP1351], in test [1] (KD ratio class), the “HRAS/KRAS (ratio of KD value for HRAS to KD value for KRAS)” value is “B (a compound having 3 or more and less than 10 is denoted as B)”. This compound also yielded an IC50 in test [2] of 12.8 nM. Moreover, the Kd in test [3] (setting [5]) is 0.13 nM. The “NRAS/KRAS (ratio of KD value for NRAS to KD value for KRAS)” value in test [4] (KD ratio class) is “A (a compound having 10 or more and less than 20 is denoted as A)”.
As to `CCOC[C@H]1C(=O)N[C@@H]([C@@H](C)CC)C(=O)N(C2CC2)CC(=O)N(C)[C@H]2C/C=C\CCN(C2=O)[C@@H](CC2CCCCC2)C(=O)N(C)CC(=O)N[C@@H](CCc2ccc(C(F)(F)F)c(OC)c2)C(=O)N2C[C@@H](C)C[C@H]2C(=O)N(C)C2(CCC2)C(=O)N(C)[C@@H](C2CCCC2)C(=O)N(C)[C@H](C(=O)N(C)C)CC(=O)N1C` [PP2373], the “HRAS/KRAS (ratio of KD value for HRAS to KD value for KRAS)” value in test [1] was “A (a compound having 10 or more and less than 20 is denoted as A)”. This compound showed an IC50 in test [2] of 6.5 nM. The equilibrium dissociation constant (Kd) in test [3] (SPR, Single Cycle Kinetics) stood at 0.66 nM. The “NRAS/KRAS (ratio of KD value for NRAS to KD value for KRAS)” value in test [4] was “A (a compound having 10 or more and less than 20 is denoted as A)”.
Turning to `CCO[C@@H]1C[C@H]2C(=O)NC3(CCC3)C(=O)N(C)[C@@H](C(CC)CC)C(=O)N(C)[C@H](C(=O)N3CCCC3)CC(=O)N(C)[C@@H](C)C(=O)N[C@@H]([C@@H](C)CC)C(=O)N(C)CC(=O)N(C)[C@H]3C/C=C\CCN(C3=O)[C@@H](CC3CCC(F)(F)CC3)C(=O)N(C)CC(=O)N[C@@H](CCc3cc(F)c(C(F)(F)F)c(F)c3)C(=O)N2C1` [PP1436], the “HRAS/KRAS (ratio of KD value for HRAS to KD value for KRAS)” value in test [1] (KD ratio class) is “A (a compound having 10 or more and less than 20 is denoted as A)”. The compound further gave an IC50 in test [2] of 47.4 nM. Besides, in test [3] (setting [5]), the dissociation constant Kd worked out at 0.29 nM. The “NRAS/KRAS (ratio of KD value for NRAS to KD value for KRAS)” value in test [4] (KD ratio class) is recorded as “AA (a compound having 20 or more is denoted as AA)”.
In the case of `CCO[C@@H]1C[C@H]2C(=O)NC3(CC(C)(C)C3)C(=O)N(C)[C@@H](C(CC)CC)C(=O)N(C)[C@H](C(=O)N(C)C)CC(=O)N(C)[C@@H](COC)C(=O)N[C@@H]([C@@H](C)CC)C(=O)N3CCC[C@H]3C(=O)N(C)[C@H]3C/C=C\CCN(C3=O)[C@@H](Cc3ccc(C(F)(F)F)cc3)C(=O)N(C)CC(=O)N[C@@H](CCc3ccc(Cl)c(Cl)c3)C(=O)N2C1` [PP2635], the “HRAS/KRAS (ratio of KD value with respect to GDP-bound HRAS wild-type protein to KD value with respect to KRAS)” value in test [1] was “A (a compound having 10 or more and less than 20 is denoted as A)”. In addition, the 50% inhibitory concentration (IC50) in test [2] was determined as 50.2 nM. Further, the dissociation constant (Kd) in test [3] (setting [6]) came out at 0.97 nM. Also, the “NRAS/KRAS (ratio of KD value with respect to GDP-bound NRAS wild-type protein to KD value with respect to KRAS)” value in test [4] is reported as “AA (a compound having 20 or more is denoted as AA)”.

For the origin of these results see patent US20240158446A1, “CYCLIC COMPOUND HAVING SELECTIVE INHIBITORY ACTION ON KRAS OVER HRAS AND NRAS” (CHUGAI SEIYAKU KABUSHIKI KAISHA, priority 2021, published 2024).
